From US20240156861A1, “Cisplatin particles and uses thereof” (CRITITECH, INC., priority 2022, published 2024)

Columns and labels:
Type in all cases: physicochemical
[1] = Particle Size Distribution (PSD) by laser diffraction, Malvern Mastersizer 3000; details: dispersed in ethyl acetate
Description: Particle Size Distribution (PSD) by Laser Diffraction
Particle size analyses were conducted on a Malvern Mastersizer™ 3000 using the Hydro MV dispersion unit. A non-validated general PSD method/dispersant method was used to analyze the cisplatin samples. The sample preparation procedure performed was as follows:
Weigh 10 to 20 mg of cisplatin into a 30-mL vial, add 20 mL of ethyl acetate. Disperse the sample by vortexing then sonicating the suspension in an ultrasonic bath for 1 minute. Then transfer the sample suspension to the Malvem Hydro MV dispersion unit to obtain obscuration between 5 and 15%.

[2] = Specific Surface Area (SSA) by BET sorptometry
Description: As used herein, the “specific surface area” is the total surface area of the cisplatin particle per unit of cisplatin mass as measured by the Brunauer—Emmett—Teller (“BET”) isotherm (i.e.: the BET SSA). As will be understood by those of skill in the art, the SSA is determined on a per gram basis and takes into account both agglomerated and non-agglomerated cisplatin particles in the composition. The BET specific surface area test procedure is a compendial method included in both the United States Pharmaceopeia and the European Pharmaceopeia. The cisplatin particles have a specific surface area (SSA) of at least 3.5 m^2/g. In various further embodiments, the cisplatin particles have a SSA of at least 4 m^2/g, 5 m^2/g, 6 m^2/g, 7 m^2/g, 8 m^2/g, 9 m^2/g, 10 m^2/g, 11 m^2/g, 12 m^2/g, 13 m^2/g, 14 m^2/g, […] m^2/g, 17 m^2/g, 18 m^2/g, 19 m^2/g 20 m^2/g 21 m^2/g, 22 m^2/g, 23 m^2/g, or 24 m^2/g.
Specific Surface Area (SSA) determination by BET Sorptometry
Surface area analyses were conducted on a Quantachrome NOVAtouch™ LX2 BET Sorptometer. […] Surface area results can be found in Table 1.

[3] = Bulk density analysis (modified USP <616> Method I, 10 mL graduated cylinder); details: not tapped
Description: As used herein, the bulk density of the cisplatin particles is the mass of the totality of particles in the composition divided by the total volume they occupy when poured into a graduated cylinder and not tapped. The total volume includes particle volume, inter-particle void volume, and internal pore volume.
Bulk density analysis by modified USP <616>Bulk Density of Powders Method I
Bulk density analyses were conducted using a 10 mL graduated cylinder due to low sample volume. SC1 was the only precipitate measured due to insufficient materials available for analysis from SC2 and SC3. […] Bulk density results can be seen in Table 1.

N.N.[Cl][Pt][Cl] [Raw, Cisplatin]
PSD - Mastersizer Dv10 [1]: 1.72 μm | PSD - Mastersizer Dv50 [1]: 10.9 μm | PSD - Mastersizer Dv90 [1]: 25.9 μm | Surface Area [2]: 2.44 m^2/g | Bulk Density [3]: 1.01 g/mL
